In US20030118671A1, “Formulation containing peanut leaf extract and its preparation” (priority 1999, published 2003):

Tests used:
[1] = test system: spleen, thymus and lymph node; experiment: Immune organs weight assay; format: in vivo, Kunming mice; conditions: mice, day 8; leaf extract 84.8 g/1 kg orally 7 days; cortisone acetate 50 mg/1 kg i.m. 3 times
Excerpt: Organ weights of Spleen, thymus and lymph node in animals are increased by most of the immunopotentiating agents, but decreased by immunosuppressive agents. So the assay was used to investigate the effect of the preparation containing leaf extract of A. hypogaea on immunological function.
Animals: male and female (1:1) Kunming mice (provided by Shanghai Bioproduct Institute) were used.
Drugs: leaf extract of A. hypogaea, provided by Shanghai Zhoaxiang Chinese Medicinal Herbs Factory. Injection of cortisone acetate was provided by Shanghai Ninth Pharmaceutical Factory.
Methods: The animals were divided into groups at random after weighting. Mice were administered with 84.8 g/1 kg body weight diluted leaf extract of A. hypogaea (in terms of crude drugs) orally once per day for 7 days. 50 mg/1 kg cortisone acetate was injected intramuscularly (totally 3 times), on 2, 4, 6 days after the administration of leaf extract of A. hypogaea. 0.2 ml/10 g body weight physiological saline was administrated orally in control group, once per day for 7 days. Animals were sacrificed on the day 8 by bleeding from orbit vein. Then, spleen, thymus and lymph node (jaw, axillary fossa, groin) were taken out and weighed immediately. Each organic weight was shown as mg/10 g body weight.

mononuclear macrophage = experiment: Carbon particulate clearance test; format: in vivo; conditions: mice, day 8 after seven days of drug; the values are: carbon clearance K value
Excerpt: This method was used to observe the phagocytosis of mononuclear macrophage. Immunopotentiators can activate the macrophage of mice, and enhance the phagocytosis thereof. In contrast, immunosuppressants suppress these effects. Therefore, K values were increased or decreased by these two kinds of drugs, respectively
Animals and drugs were same to those used above.
Methods: After oral administration of drugs or physiological saline, or intramuscular injection of […], for seven days, 0.05 mL/10 g body weight injected through tail vein in mice on day 8. 20 μL blood was acquired from orbit vein, in 1 and 5 minutes after injection, added to 0.1%Na2CO3 respectively, and shaken up. Optical density was detected with Model-72 spectrophotometer at λ=680 nm. K values were calculated. The results were statistically analyzed and p values were assessed by t-test.

mice = conditions: mouse, in vivo; cited from earlier work
[2] = test system: peripheral blood of mouse; experiment: Peripheral blood rosette test (RFC method); format: in vivo, mice; conditions: 4 days after SRBC immunisation
Experimental: (§1) Peripheral blood of mouse, spleen cells rosette formation method. This method was used to observe the effect of drugs on antigen combining cell during the earlier stage of immune, which was used to screen immunopotentiator or immunosuppressant. 7.5 mg cyclophosphamide (manufactured by Shanghai Twelve Pharmaceutical Factory) per 1 kg of body weight of male mouse was injected intraperitoneally. According the recommended method for screening immune drugs disclosed by a person, each group was administrated and immured by injection sheep red blood cell (SRBC). After 4 days, peripheral blood and spleen cell suspension (approximately 9 million spleen cells per milliliter) were obtained from mice, and 1% SRBC and 0.1 mL inactivated calf blood serum were added thereto, intermixed and centrifuged under low-speed for 10 minutes. Then 1% toluidine blue was added in minor amount along the wall of the test tubes. Cell pellet was slightly dispersed by pipette. Well-mixed cell suspension was dropped to blood cell counting chamber and the number of rosette in 1 mm^3 was counted under a microscope. Once lymphocyte was surrounded by more than five SRBC, it was regarded as a rosette.

spleen cells = experiment: Spleen cell rosette test (RFC method); format: in vivo, mice; conditions: 4 days after SRBC immunisation
Experimental: as §1

With `CC(=O)OCC(=O)[C@@]1(O)CC[C@H]2[C@@H]3CCC4=CC(=O)CC[C@]4(C)[C@H]3C(=O)C[C@@]21C` [cortisone, cortisone acetate] the lymph node weight [1] was 0.12 ± 0.05 mg/10 g body weight, the thymus weight [1] was 3.77 ± 0.83 mg/10 g body weight and the weight of spleen [1] was 2.58 ± 1.00 mg/10 g body weight. It also gave a carbon clearance K value (mononuclear macrophage) of 0.00587 ± 0.0033.
In the case of `C=CC(C)(O)CCC=C(C)C` (stereo not shown) [Linalool], the “sedative-hypnotic effect (literature)” value (mice) is given as “positive effects on the sedative-hypnotic”.
In the case of `O=P1(N(CCCl)CCCl)NCCCO1` (stereo not shown) [cyclophosphamide], the rosette percent [2] is reported as 15.93 ± 3.35 and the rosette percent (spleen cells) is reported as 20.50 ± 4.29.
